Test results from the NIST ThermoML archive (doi:10.1016/j.tca.2013.08.031).

Conditions: for mass density: isochoric method

CCC(C)O (centres undefined) [butan-2-ol]
Conditions | Critical density [kg/m3] | Critical temperature [K] | mass density [kg/m3]
306.95 K, Liquid | – | – | 794.06
335.35 K, Liquid | – | – | 769.05
367.55 K, Liquid | – | – | 735.98
408.51 K, Liquid | – | – | 683.53
433.35 K, Liquid | – | – | 648.53
463.85 K, Liquid | – | – | 598.18
492.87 K, Liquid | – | – | 538.17
504.95 K, Gas | – | – | 76.44
514.26 K, Gas | – | – | 95.93
515.15 K, Liquid | – | – | 474.07
522.2 K, Gas | – | – | 117
527.92 K, Gas | – | – | 142.27
529.41 K, Liquid | – | – | 403.55
533.73 K, Gas | – | – | 184.89
534.55 K, Liquid | – | – | 347.06
534.68 K, Gas | – | – | 198.25
535.83 K, Gas | – | – | 245.67
535.83 K, Liquid | – | – | 301.19
535.89 K, Liquid | – | – | 286.65
535.93 K, Liquid | – | – | 284.93
535.94 K, Liquid | – | – | 279.19
535.95 K, Liquid | – | – | 276.45
Liquid, DSC | 276.4 | – | –
Liquid, DTA | – | 535.95 | –
